Measured values as given in patent publication US10053485B2, “Cytotoxic agents that preferentially target leukemia inhibitory factor (LIF) for the treatment of malignancies and as new contraceptive agents” (Evestra, Inc., priority 2015, dated 2018).

Legend:
Assay type in all cases: cell-based
HL-60(TB) = assay: NCI-60 screen, Leukemia panel; details: Homo sapiens, HL-60, 48 h
HCT-116 = assay: NCI-60 screen, Colon Cancer panel; details: Homo sapiens, HCT-116, 48 h
SK-MEL-5 = assay: NCI-60 screen, Melanoma panel; details: Homo sapiens, SK-MEL-5, 48 h
IGROV1 = assay: NCI-60 screen, Ovarian Cancer panel; details: Homo sapiens, IGROV-1; IGROV1, 48 h, SRB; read-out: GI50 (log10GI50) (converted)
Protocol: Additional four, 10-fold or ½ log serial dilutions are made to provide a total of five drug concentrations plus control.
For adherent cells, the assay is terminated by the addition of cold TCA. Cells are fixed in situ by the gentle addition of 50 μl of cold 50% (w/v) TCA (final concentration, 10% TCA) and incubated for 60 minutes at 4° C. The supernatant is discarded, and the plates are washed five times with tap water and air dried. Sulforhodamine B (SRB) solution (100 μl) at 0.4% (w/v) in 1% acetic acid is added to each well, and plates are incubated for 10 minutes at room temperature. After staining, unbound dye is removed by washing five times with 1% acetic acid and the plates are air dried. […] Using the seven absorbance measurements [time zero, (Tz), control growth, (C), and test growth in the presence of drug at the five concentration levels (Ti)], the percentage growth is calculated at each of the drug concentrations levels.
Three dose response parameters are calculated for each experimental agent. […] The drug concentration resulting in total growth inhibition (TGI) is calculated from Ti=Tz. […] Values are calculated for each of these three parameters if the level of activity is reached; however, if the effect is not reached or is exceeded, the value for that parameter is expressed as greater or less than the maximum or minimum concentration tested.

NCI/ADR-RES = assay: NCI-60 screen, Ovarian Cancer panel; details: Homo sapiens, 48 h
A498 = assay: NCI-60 screen, Renal Cancer panel; details: Homo sapiens, A498, 48 h
UO-31 = assay: NCI-60 screen, Renal Cancer panel; details: Homo sapiens, UO-31, 48 h
BT-549 = assay: NCI-60 screen, Breast Cancer panel; details: Homo sapiens, BT-549, 48 h
[1] = tested on: IGROV-1 (Ovarian cancer cells); assay: Short term (72 h) cytotoxicity assay; details: Homo sapiens; IGROV-1, 72 h cytotoxicity
[2] = tested on: PC3 (AR− Prostate Cancer); assay: Short term (72 h) cytotoxicity assay; details: Homo sapiens, PC3, 72 h cytotoxicity
LNCaP (AR+ Prostate) = assay: Short term (72 h) cytotoxicity assay
[3] = tested on: LIF-overexpressing MCF-7 (MCF-7 LIF) human breast cancer cells; assay: LIF specificity assay, LIF-overexpressing cells
[4] = read-out: GI50 (log10GI50) (converted)
[5] = read-out: LC50 (log10LC50) (converted)

With `C#CC(F)(F)[C@]1(O)CCC2C3CCC4=CC(=O)CCC4=C3C(c3ccc(C4CC4)cc3)C[C@@]21C` (stereo partly drawn) [EC330, 17α-(1,1-difluoro-2-propyn-1-yl)-17β-hydroxy-11β-[4-p-(cyclopropyl)phenyl]estra-4,9-dien-3-one] the GI50 (HL-60(TB); [4]) was < 0.01 µM, the CC50 (HL-60(TB); [5]) was < 0.01 µM and the GI50 (HCT-116; [4]) was 2.82 µM. The CC50 (HCT-116; [5]) was > 100 µM, the GI50 (SK-MEL-5; [4]) was 4.68 µM and the CC50 (SK-MEL-5; [5]) was 43.7 µM. The GI50 (IGROV1) was < 0.01 µM, the GI50 (NCI/ADR-RES; [4]) was 0.0257 µM and the CC50 (NCI/ADR-RES; [5]) was > 100 µM. For the same compound, the GI50 (A498; [4]) was 0.263 µM, the CC50 (A498; [5]) was 3.89 µM and the GI50 (UO-31; [4]) was < 0.01 µM. The CC50 (UO-31; [5]) was < 0.01 µM, the GI50 (BT-549; [4]) was 2.09 µM and the CC50 (BT-549; [5]) was > 100 µM. It also gave an IC50 [1] of 0.035 µM, an IC50 [2] of 0.03 µM and an IC50 (LNCaP (AR+ Prostate)) of 0.053 µM. For the same compound, the IC50 ([3]; Homo sapiens, MCF7, read-out: MCF-7 LIF IC50) was 0.08 µM and the “vulnerability of LIF overexpressing cells to cell death” value ([3]; LIF-overexpressing vs. unmodified MCF-7, in words) was “more vulnerable to cell death”.
